According to publication PMC6162703, “Interaction of 2′R-ochratoxin A with Serum Albumins: Binding Site, Effects of Site Markers, Thermodynamics, Species Differences of Albumin-binding, and Influence of Albumin on Its Toxicity in MDCK Cells” (Toxins, 2018):
“And” between values parts separate entries of the source, which are not always exact repeats. Equal values may be shown once.

Legend:
[1] = target: human serum albumin (HSA) (Homo sapiens, UniProt P02768); experiment: Fluorescence spectroscopy of 2′R-OTA-HSA complex (binding constant by Hyperquad, fluorescence enhancement)
human serum albumin (HSA), sequence (P02768 25-609): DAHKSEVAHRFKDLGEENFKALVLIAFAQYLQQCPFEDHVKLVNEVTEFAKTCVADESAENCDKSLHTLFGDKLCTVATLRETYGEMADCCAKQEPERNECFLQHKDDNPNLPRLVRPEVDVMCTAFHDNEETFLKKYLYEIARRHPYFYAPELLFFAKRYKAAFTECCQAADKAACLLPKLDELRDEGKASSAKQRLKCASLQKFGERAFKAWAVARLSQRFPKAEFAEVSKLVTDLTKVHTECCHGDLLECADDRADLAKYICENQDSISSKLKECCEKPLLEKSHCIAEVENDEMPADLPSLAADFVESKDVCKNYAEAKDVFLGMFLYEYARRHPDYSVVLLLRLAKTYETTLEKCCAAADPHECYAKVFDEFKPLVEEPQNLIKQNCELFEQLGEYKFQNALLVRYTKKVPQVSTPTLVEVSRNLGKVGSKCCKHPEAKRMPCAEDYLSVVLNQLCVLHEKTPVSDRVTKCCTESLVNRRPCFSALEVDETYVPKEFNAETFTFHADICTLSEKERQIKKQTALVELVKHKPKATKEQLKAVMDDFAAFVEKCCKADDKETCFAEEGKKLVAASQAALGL
Experimental: (§1) To test this hypothesis, the fluorescence emission spectra of 2′R-OTA (Figure 7A) and OTA (Figure 7B) were recorded in the absence and presence of albumins from different species, including human (HSA), bovine (BSA), porcine (PSA), and rat (RSA) serum albumins (λex = 394 nm).
(§2) However, excitation of the same samples at 394 nm leads to the excitation of both free and albumin-bound 2′R-OTA [23, 24]. […] Binding constants of 2′R-OTA-albumin complexes were determined by the Hyperquad program, based on the fluorescence intensities measured at 447 nm (Figure 8C,D).
(§3) Fluorescence spectroscopic analyses, including anisotropy measurements, were carried out employing a Hitachi F-4500 fluorescence spectrophotometer. Spectroscopic measurements were performed in phosphate buffered saline (PBS, pH 7.4) at 25 °C in the presence of air. Fluorescence emission spectrum of 2′R-OTA (1 µM) was recorded in the presence of increasing concentrations of albumin (0.0, 0.1, 0.25, 0.5, 0.75, 1.0, 1.25, 1.5, 2.0, 3.0 and 5.0 µM) using 295 and 394 nm as excitation wavelengths. At 394 nm, we excited directly 2′R-OTA and its albumin complex. However, using 295 nm excitation wavelength, albumin-bound 2′R-OTA was excited as a result of the energy transfer between albumins and 2′R-OTA [23, 31].
(§4) Binding constants (K) of mycotoxin-albumin complexes were calculated by non-linear fitting, using the Hyperquad2006 program package (Protonic Software) as described in previous studies. The stoichiometry of 2′R-OTA-albumin complexes was calculated based on the model associated with the lowest standard deviation.

[2] = target: bovine serum albumin (BSA) (Bos taurus, UniProt P02769); experiment: Fluorescence spectroscopy of 2′R-OTA/OTA-BSA complex (binding constant by Hyperquad, fluorescence enhancement); conditions: for Kd: K in L/mol, PBS pH 7.4, 25 °C
bovine serum albumin (BSA), sequence (P02769 25-607): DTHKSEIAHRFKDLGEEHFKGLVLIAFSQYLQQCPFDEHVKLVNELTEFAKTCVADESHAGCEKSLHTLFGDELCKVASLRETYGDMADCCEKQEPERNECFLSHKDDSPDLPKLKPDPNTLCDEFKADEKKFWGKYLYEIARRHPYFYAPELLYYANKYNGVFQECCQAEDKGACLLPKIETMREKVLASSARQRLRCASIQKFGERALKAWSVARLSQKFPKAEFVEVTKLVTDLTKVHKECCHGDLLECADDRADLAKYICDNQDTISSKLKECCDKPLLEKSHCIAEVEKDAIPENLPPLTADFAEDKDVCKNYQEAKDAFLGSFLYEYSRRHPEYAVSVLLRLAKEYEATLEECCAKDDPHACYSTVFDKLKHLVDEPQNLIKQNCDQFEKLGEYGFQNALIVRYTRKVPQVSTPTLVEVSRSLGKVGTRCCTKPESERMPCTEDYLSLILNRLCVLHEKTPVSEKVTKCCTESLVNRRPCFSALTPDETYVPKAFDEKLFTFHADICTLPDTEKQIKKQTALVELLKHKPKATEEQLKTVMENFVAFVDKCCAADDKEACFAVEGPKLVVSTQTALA
Experimental: as §1, §2, §3, §4

[3] = target: porcine serum albumin (PSA) (Sus scrofa, UniProt P08835); experiment: Fluorescence spectroscopy of 2′R-OTA/OTA-PSA complex (binding constant by Hyperquad, fluorescence enhancement); conditions: λem = 447 nm; for Kd: K in L/mol, PBS pH 7.4, 25 °C
porcine serum albumin (PSA), sequence (P08835 25-607): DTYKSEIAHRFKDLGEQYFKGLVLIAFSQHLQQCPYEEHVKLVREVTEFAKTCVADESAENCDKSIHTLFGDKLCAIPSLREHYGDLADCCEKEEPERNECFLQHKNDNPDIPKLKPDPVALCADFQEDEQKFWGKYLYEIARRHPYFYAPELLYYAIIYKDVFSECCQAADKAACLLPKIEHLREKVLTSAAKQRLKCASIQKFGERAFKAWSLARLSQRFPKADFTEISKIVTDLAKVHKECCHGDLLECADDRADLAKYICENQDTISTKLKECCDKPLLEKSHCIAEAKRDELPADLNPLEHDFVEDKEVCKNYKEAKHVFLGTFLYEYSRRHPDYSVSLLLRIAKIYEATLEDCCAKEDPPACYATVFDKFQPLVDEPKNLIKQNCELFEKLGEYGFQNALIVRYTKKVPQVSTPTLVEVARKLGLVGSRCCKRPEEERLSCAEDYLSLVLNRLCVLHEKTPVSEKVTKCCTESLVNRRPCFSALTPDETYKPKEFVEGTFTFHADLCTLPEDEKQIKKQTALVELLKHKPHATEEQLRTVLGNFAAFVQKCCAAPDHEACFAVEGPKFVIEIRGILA
Experimental: as §1, §2, §3, §4

rat serum albumin (RSA) = rat serum albumin (RSA) (Rattus norvegicus, UniProt P02770); experiment: Fluorescence spectroscopy of 2′R-OTA/OTA-RSA complex (binding constant by Hyperquad, fluorescence enhancement); conditions: for Kd: K in L/mol, PBS pH 7.4, 25 °C
rat serum albumin (RSA), sequence (P02770 25-608): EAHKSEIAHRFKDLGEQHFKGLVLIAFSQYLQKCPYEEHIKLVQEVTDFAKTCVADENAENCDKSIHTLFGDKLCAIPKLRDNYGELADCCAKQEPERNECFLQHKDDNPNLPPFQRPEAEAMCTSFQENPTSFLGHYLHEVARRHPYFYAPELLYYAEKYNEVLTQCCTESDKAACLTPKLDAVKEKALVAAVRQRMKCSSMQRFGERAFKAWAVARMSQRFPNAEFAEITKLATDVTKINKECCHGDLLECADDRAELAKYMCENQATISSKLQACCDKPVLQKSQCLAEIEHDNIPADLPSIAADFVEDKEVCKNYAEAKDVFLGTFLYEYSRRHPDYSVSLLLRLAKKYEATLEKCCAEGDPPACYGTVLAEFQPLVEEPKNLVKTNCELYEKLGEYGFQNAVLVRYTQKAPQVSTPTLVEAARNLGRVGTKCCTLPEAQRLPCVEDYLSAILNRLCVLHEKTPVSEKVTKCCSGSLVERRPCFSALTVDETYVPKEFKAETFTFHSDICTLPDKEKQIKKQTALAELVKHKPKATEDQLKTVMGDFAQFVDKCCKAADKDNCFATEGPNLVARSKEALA
Experimental: as §1, §2, §3, §4

HSA [4] = target: T1, HSA (Homo sapiens, UniProt P02768); experiment: Thermodynamics of 2′R-OTA-HSA complex formation (van’t Hoff, six temperatures); assay type: binding
T1 construct: purchased Sigma-Aldrich
T1 sequence (P02768 25-609): as the sequence (P02768 25-609) above
Description: Since thermodynamic data give a deeper insight into the nature of protein-ligand interactions (including binding forces are involved in the complex formation), the binding ability of 2′R-OTA towards HSA was also examined at different temperatures. According to the van’t Hoff equation (Equation (2)), the logK values expressed as the function of the appropriate reciprocal temperatures show good linearity (Figure 6).
For the deeper insight into 2′R-OTA-HSA interaction, binding constants of mycotoxin-albumin complexes were also determined at six different temperatures (298, 301, 304, 307, 310 and 313 K). The binding constants were determined by the Hyperquad2006 program package, using 394 and 447 nm as excitation and emission wavelengths, respectively. Thermodynamic parameters associated to the complex formation between 2′R-OTA and HSA were determined based on the van ’t Hoff equation: (2) logK=−ΔG /RT=−ΔH/2.303RT+ΔS/2.303R where ΔG, ΔH, and ΔS denote the Gibbs free energy, enthalpy, and entropy changes of the binding reaction, respectively; while R is the gas constant and T refers the temperature.

MDCK cells [5] = assay type: cell-based, canine; conditions: 24 h; for effect on the concentration of ATP and total protein: 0–50 µM
Description: Similarly to OTA, 2′R-OTA also forms very stable complexes with albumins (Table 2). Therefore, it was reasonable to hypothesize that the presence of albumin may decrease the 2′R-OTA-induced toxicity in cell experiments, due to the entrapment of the mycotoxin in the cell medium by albumin. To test the influence of albumin on the in vitro effects of ochratoxins, the acute cellular toxicity of 2′R-OTA and OTA was investigated in the absence and presence of HSA and fetal bovine serum (FBS). MDCK kidney cells were treated with the mycotoxins at increasing concentrations (0–50 µM) for 24 h with and without 10% FBS or 40 g/L HSA. Ten percent FBS is commonly used in cell culture media (it yields approximately 3.5 g/L final concentration of BSA) in cell experiments, whereas approximately 40 g/L HSA circulates in the human blood. The mycotoxin-induced loss of cell viability was evaluated based on ATP and total protein levels. […] Under the applied conditions, the presence of 10% FBS or 40 g/L HSA (without ochratoxins) had no significant effect on cell viability (data not shown). […] The weaker effect of FBS can be attributed to the lower BSA content of the cell medium (3.5 g/L BSA verses 40 g/L HSA). Since albumins form very stable complexes with both 2′R-OTA and OTA, albumin likely reduces the cellular uptake of these mycotoxins, resulting in their lower cellular toxicity.
MDCK (Madin-Darby canine kidney epithelial cell line, ATCC: CCL-34) cell culture was maintained in DMEM with 10% FBS, penicillin (100 U/mL), and streptomycin (100 µg/mL) at 37 °C in a humidified environment (5% CO2). Cells were trypsinized and plated in 96-well sterile plastic plates (approximately 10^4 cells/well) for overnight pre-incubation. Next day, the culture medium was replaced with fresh one (with or without 10% FBS or 40 g/L HSA), then cells were treated with increasing concentrations of 2′R-OTA and/or OTA (0, 1, 5, 10, 20 and 50 µM; in 150 µL medium/well). After 24 h incubation, cell viability was evaluated based on cellular ATP and total protein levels. […]

MDCK cells [6] = experiment: Co-treatment of MDCK cells with OTA and 2′R-OTA (ATP levels/well); assay type: cell-based, canine; conditions: sub-toxic 2′R-OTA concentrations, 24 h
Experimental: Since 2′R-OTA appears in the circulation together with OTA, the toxic action of OTA in the presence of increasing 2′R-OTA concentrations was also tested. Both mycotoxins occupy Site I as their primary binding sites in albumin, therefore, 2′R-OTA may able to displace OTA from HSA, resulting in the increased cellular uptake and cytotoxicity of OTA in the presence of 2′R-OTA. Because 40 g/L HSA completely abolished the acute toxic action of ochratoxins, co-treatment of MDCK cells with OTA and 2′R-OTA was investigated without albumin and in the presence of 10% FBS. ATP levels/well were quantified after 24 h incubation. […] In the presence of FBS (Figure 10B), the 2′R-OTA-induced further loss in cell viability may be partly attributed to the displacement of OTA from albumin by 2′R-OTA. […] Therefore, other toxicokinetic and/or toxicodynamic mechanism(s) may be involved. Despite its relatively lower toxicity, when simultaneously present 2′R-OTA with OTA, 2′R-OTA can increase the effect of OTA.
MDCK (Madin-Darby canine kidney epithelial cell line, ATCC: CCL-34) cell culture was maintained in DMEM with 10% FBS, penicillin (100 U/mL), and streptomycin (100 µg/mL) at 37 °C in a humidified environment (5% CO2). […] After 24 h incubation, cell viability was evaluated based on cellular ATP and total protein levels. […]

HSA [7] = target: T1, HSA; conditions: cited from earlier work
[8] = test system: IHKE and HepG2 cell lines; conditions: in vitro studies; cited from earlier work
[9] = humans; cited from earlier work
[10] = humans; cited from earlier work; remark: listed apart in the source
HSA [11] = target: T1, HSA; assay type: binding; conditions: 1.0 µM 2′R-OTA, 1.5 µM HSA, site marker 0–30 µM, PBS pH 7.4
[12] = 1 µM mycotoxin, 5 µM albumin, PBS, λex = 394 nm
[13] = both excitation wavelengths (295 or 394 nm)

C[C@@H]1Cc2c(Cl)cc(C(=O)N[C@H](Cc3ccccc3)C(=O)O)c(O)c2C(=O)O1 [2′R-OTA, 2′R-ochratoxin A]
Kd [1]: 525 nM | I/I0 (±SD), enhancement of the fluorescence of 2′R-OTA by complex formation ([1]; HSA, λex = 394 nm, λem = 447 nm, PBS): 2.35 ± 0.07 | Kd at 1 µM ([1]; human, human serum albumin (HSA) in PBS, pH 7.4): 229 nM | fluorescence enhancement by BSA compared with other albumins [2, 12]: highest emission signal | I/I0 (±SD), enhancement of the fluorescence of 2′R-OTA by complex formation ([2]; BSA, λex = 394 nm, λem = 447 nm, PBS): 2.48 ± 0.06 | affinity to BSA relative to HSA and PSA [2, 13]: 2–3 times higher | Kd ([2]; logK (± SD) of binding constant, BSA, λex = 295 nm, λem = 447 nm): 214 nM | Kd ([2]; logK (±SD) of binding constant, BSA, λex = 394 nm, λem = 447 nm): 47.9 nM | Kd ([3]; logK (± SD) of binding constant, λex = 295 nm): 617 nM | Kd ([3]; logK (±SD) of binding constant, λex = 394 nm): 145 nM | I/I0 (±SD), enhancement of the fluorescence of 2′R-OTA by complex formation ([3]; λex = 394 nm, PBS): 1.98 ± 0.05 | I/I0 (±SD), enhancement of the fluorescence of 2′R-OTA by complex formation (rat serum albumin (RSA); RSA, λex = 394 nm, λem = 447 nm, PBS): 2.22 ± 0.09 | affinity to RSA relative to HSA and PSA (rat serum albumin (RSA); [13]): 2–3 times higher | Kd (rat serum albumin (RSA); logK (± SD) of binding constant, RSA, λex = 295 nm, λem = 447 nm): 355 nM | Kd (rat serum albumin (RSA); logK (±SD) of binding constant, RSA, λex = 394 nm, λem = 447 nm): 64.6 nM | ΔH of 2′R-OTA-HSA complex formation (HSA [4]; 298-313 K): -2.02 kcal/mol | ΔS of 2′R-OTA-HSA complex formation (HSA [4]; 298-313 K): 102.62 J K^-1 mol^-1 | ΔG of 2′R-OTA-HSA complex formation (HSA [4]; 298K (room-temperature)): -9.331 kcal/mol | effect on the concentration of ATP and total protein (MDCK cells [5]): dose-dependent, significant decreases | cytotoxicity relative to OTA (MDCK cells [5]): approximately 10 times lower | effect of 2′R-OTA on the toxic effect of OTA (MDCK cells [6]; absence of FBS, 1 μM OTA): increased significantly | effect of 2′R-OTA on the toxic effect of OTA (MDCK cells [6]; presence of 10% FBS, 20 μM OTA): increased significantly | affinity to HSA lower than that of OTA (HSA [7]): approximately tenfold | binding constant K of the complex with HSA (HSA [7]): ~ 2 × 10^6 L/mol and 2 × 10^6 L/mol | binding constant of 2′R-OTA-HSA complex higher than that of aflatoxin-HSA complexes (HSA [7]): 100 fold | acute toxicity compared with OTA [8]: lower acute toxicity

C[C@@H]1Cc2c(Cl)cc(C(=O)N[C@@H](Cc3ccccc3)C(=O)O)c(O)c2C(=O)O1 [OTA, Ochratoxin A]
fluorescence enhancement by RSA compared with other albumins (rat serum albumin (RSA); [12]): highest fluorescence | effect on the concentration of ATP and total protein (MDCK cells [5]): dose-dependent, significant decreases | stability of OTA-HSA complex higher than that of the complex with bovine albumin (HSA [7]): approximately tenfold | stability of OTA-HSA complex higher than that of the complex with rat albumin (HSA [7]): ~30 fold | affinity order toward albumins of different species (HSA [7]; previous investigations): Human > bovine > porcine > rat | plasma protein binding [9]: 99.8% | plasma elimination half-life [10]: approximately one month

C=CC1=C(C)/C(=C/c2[nH]c(Cc3[nH]c(/C=C4\NC(=O)C(C)=C4C=C)c(C)c3CCC(=O)O)c(CCC(=O)O)c2C)NC1=O [bilirubin]
displacement of 2′R-OTA from HSA by the site marker (HSA [11]): strongly displaced

CC1=C2C(=CO[C@H](C)[C@H]2C)C(O)=C(C(=O)O)C1=O [citrinin]
binding constant K of the complex with HSA (HSA [7]): 200000 L/mol

CN(C)c1ccc(N=Nc2ccc(S(=O)(=O)[O-])cc2)cc1.[Na+] [methyl orange]
displacement of 2′R-OTA from HSA by the site marker (HSA [11]): strongly displaced | affinity to HSA compared with another ligand (HSA [7]): much lower affinity to HSA than bilirubin

C[C@H]1CCCC(=O)CCC/C=C/c2cc(O)cc(O)c2C(=O)O1 [zearalenone]
binding constant K of the complex with HSA (HSA [7]): 10^5 L/mol
